Patent publication US20050267067A1, “Radical reaction inhibitors, method for inhibition of radical reactions, and use thereof” (priority 2002, published 2005)

How the values were obtained:
[1] = system: low density lipoprotein (LDL); experiment: Oxidation of low density lipoprotein (LDL) by AAPH, absorbance at 234 nm; assay type: biochemical; conditions: for Absorbance at a wavelength of 234 nm Average: 120 min after initiating the reaction
Procedure: An experiment for examining the influence of cyclotetrasaccharide on the oxidation inhibition for low density lipoprotein (LDL) was conducted as follows: Two and half milliliters of 0.5 mg/ml of a low density lipoprotein (LDL) in phosphate buffered saline (PBS, pH 7.4) was mixed with 2.5 ml of 100 mM PBS solution containing any one of the crystalline cyclotetrasaccharide pentahydrate, crystalline cyclotetrasaccharide monohydrate, and anhydrous crystalline cyclotetrasaccharide, which had been prepared in Experiment 1-1, in PBS or 2.5 ml of PBS free of cyclotetrasaccharide. The resulting mixture was admixed with 50 μl of 100 mM 2,2′-azo-bis(2-amidinopropane)dihydrochloride (AAPH) in PBS (pH 7.4) and reacted at 37° C. The reaction was continued for 240 min to examine changes on time course. […] In Table 2, the results for crystalline cyclotetrasaccharide pentahydrate are only shown because crystalline cyclotetrasaccharide pentahydrate, crystalline cyclotetrasaccharide monohydrate, and anhydrous crystalline cyclotetrasaccharide gave similar results. Also, the influence of cyclotetrasaccharide on the oxidation of a low density lipoprotein (LDL) by AAPH was examined by mixing a 2.5 ml solution containing 0.5 mg/ml of a low density lipoprotein (LDL) in PBS with 2.5 ml of a PBS solution in which the crystalline cyclotetrasaccharide pentahydrate, prepared in Experiment 1-1, had been dissolved to give a concentration of 2 mM, 10 mM or 20 mM, or 2.5 ml of PBS with no cyclotetrasaccharide; and measuring for absorbance at a wavelength of 234 nm for each of the resulting mixtures similarly as above.

[2] = Radical oxidation of linoleic acid by AAPH (conjugated diene, TBARS); conditions: for Formed TBARS / Formed conjugated diene: 37° C., AAPH; for Conjugated diene formation: (%) / TBARS formation: (%): versus system with no cyclotetrasaccharide
From the text: As a negative control, a system of PBS with no cyclotetrasaccharide was provided and measured similarly as above. Conjugated diene was quantified by measuring the absorbance of test samples at a wavelength of 234 nm according to the method by Okamura et al., in Journal of Agricultural and Food Chemistry, Vol. 42, page 1,612 (1994). TABRS was quantified by allowing the sampled test specimens to react with thiobarbituric acid and measured for absorbance of the reaction mixture at a wavelength of 532 nm according to the method by Ohgawara et al., in Journal of Lipid Research, Vol. 19, page 1,053 (1978). The quantification of the formed TBARS in test samples was determined with a calibration curve provided in such a manner of diluting 1,1,3,3-tetraethoxypropane with ethanol into 10, 50 and 100 μg/ml dilutes, allowing the dilutes with thiobarbituric acid similarly as the test samples, measuring the absorbance of the resulting mixtures similarly as above, and drawing calibration curve based on the measured absorbances and the amount of TBARS calculated theoretically. The quantification of the formed conjugated diene in the test samples was determined by calculating the absorbances of the samples obtained in this experiment, based on the molar absorbance coefficient of molecules disclosed in Journal of Agricultural and Food Chemistry, Vol. 42, page 1,612 (1994). Tables 4 and 5 show the results on measurement for the formation level of conjugated diene and TBARS, respectively.

sucrase = experiment: Sucrase activity of rat small intestinal mucosal enzyme solution after AAPH oxidation; assay type: biochemical
Procedure: One milliliter of the above rat small intestinal mucosal enzyme solution, one milliliter of a 100 mM AAPH solution, one milliliter of a 50 mM phosphate buffer (pH 7.2), and one milliliter of a 400 mM of the crystalline cyclotetrasaccharide pentahydrate prepared in Experiment 1-1 were mixed, incubated at 37° C. for two hours, and measured for the activities of sucrase and maltase.
After incubated at 37° C. for 30 min, the mixture was quantified for free glucose by the GOD method.

[3] = Modification of L-lysine by lipid peroxides (protein carbonyl, OLAARPs); conditions: for OLAARPs Formation: (%) / Protein carbonyl Formation: (%): L-lysine, versus no saccharide; for Formed OLAARPs / Formed Protein carbonyl: 37° C., 24 hours
Procedure: In this experiment, saccharide solutions were prepared to give an equal total saccharide molar concentration in each solution.
As a negative control, PBS was used.
To five milliliters of either of the above saccharide solutions for testing or the negative control was added 10 mg of calf serum albumin (BSA) or L-lysine, followed by dissolving. To each of the resulting solutions was added 25 μg of 2,4-decadienal or malondialdehyde (MDA) as a lipid peroxide, followed by reaction at 37° C. for 24 hours. After completion of the reaction, protein carbonyl and reaction products of oxidized lipids/aminoacids (OLAARPs) formed as aldehyde adducts were quantified on the calorimetric method. […] The formation levels of protein carbonyl and OLAARPs were determined based on the absorbances obtained in this experiment, in terms of the molar absorbance coefficient for each molecule as disclosed in Biochim. Biophys. Acta, No. 1,258, pp. 319-327 (1985).
To each of the resulting mixtures was added 600 μl of 30% trichloroacetic acid, and the mixture was allowed to stand at 0° C. for one hour and centrifuged at 10,000 rpm for 15 min to obtain a precipitate, followed by washing the resulting precipitate four times with two milliliters of ethanol/ethylacetate (1:1), respectively, adding 1.5 ml of 6M-guanidine hydrochloride/20 mM-NaPi/TFA (pH 2.3) to the resultant, allowing the mixture to stand at 37° C. for 30 min, and measuring the absorbance of the resulting mixture at a wavelength of 580 nm, ε=35,000 M^−1 cm^−1. […] To any one of the resulting mixtures was added two milliliters of a 12.5 mM DNPH/2.5 N-hydrochloride solution, and the resulting mixture was allowed to stand at 45° C. for 30 min, followed by measuring the absorbance of the resulting mixture at a wavelength of 580 nm, E=35,000 M^−1 cm^−1.

[4] = reaction time 6 hr, listed as cyclotetrasaccharide
[5] = 2,4-decadienal, listed as cyclotetrasaccharide
[6] = MDA, listed as cyclotetrasaccharide
[7] = added lipid peroxide 2,4-decadienal
[8] = added lipid peroxide malondialdehyde (MDA)

With `OCC1OC2OCC3O[C@H](O[C@H]4C(O)C(CO)OC(OCC5O[C@H](O[C@@H](C1O)C2O)C(O)C(O)[C@@H]5O)C4O)C(O)C(O)[C@@H]3O` (stereo partly drawn) [Cyclotetrasaccharide, cyclo{→6}-α-D-glucopyranosyl-(1→3)-α-D-glucopyranosyl-(1→6)-α-D-glucopyranosyl-(1→3)-α-D-glucopyranosyl-(1→}] as the compound, how does the “Formation percentage (%) of LDL oxide” value ([1]; 1 mM cyclotetrasaccharide, 120 min) read?
The value was 76%.

What about the “Absorbance at a wavelength of 234 nm Average” value (“Absorbance … of 234 nm Average” for short) ([1]; 1 mM cyclotetrasaccharide) of the same compound?
The value was 0.163.

What about the “Formation percentage (%) of LDL oxide” value ([1]; 5 mM cyclotetrasaccharide, 120 min) of the same compound?
The value was 35%.

What about the “Absorbance … of 234 nm Average” value ([1]; 5 mM cyclotetrasaccharide) of the same compound?
Its value is 0.076.

What about the “Absorbance … of 234 nm Average” value ([1]; 10 mM cyclotetrasaccharide) of the same compound?
The value was 0.028.

And the “Absorbance at a wavelength of 234 nm” value ([1]; 50 mM cyclotetrasaccharide, 0 min after adding AAPH)?
Its value is 0.0.

What about the “Formation percentage (%) of LDL oxide” value ([1]; 50 mM cyclotetrasaccharide, 30 min, versus system with no cyclotetrasaccharide) of the same compound?
Its value is 14%.

And the “Absorbance at a wavelength of 234 nm” value ([1]; 50 mM cyclotetrasaccharide, 30 min after adding AAPH)?
Its value is 0.018.

And the “Formation percentage (%) of LDL oxide” value ([1]; 50 mM cyclotetrasaccharide, 60 min, versus system with no cyclotetrasaccharide)?
Its value is 20%.

And the “Absorbance at a wavelength of 234 nm” value ([1]; 50 mM cyclotetrasaccharide, 60 min after adding AAPH)?
Its value is 0.042.

What about the “Formation percentage (%) of LDL oxide” value ([1]; 50 mM cyclotetrasaccharide, 120 min, versus system with no cyclotetrasaccharide) of the same compound?
Its value is 21%.

What about the “Absorbance at a wavelength of 234 nm” value ([1]; 50 mM cyclotetrasaccharide, 120 min after adding AAPH) of the same compound?
Its value is 0.046.

And the “Formation percentage (%) of LDL oxide” value ([1]; 50 mM cyclotetrasaccharide, 180 min, versus system with no cyclotetrasaccharide)?
The value was 23%.

And the “Absorbance at a wavelength of 234 nm” value ([1]; 50 mM cyclotetrasaccharide, 180 min after adding AAPH)?
The value was 0.056.

And the “Absorbance at a wavelength of 234 nm” value ([1]; 50 mM cyclotetrasaccharide, 240 min after adding AAPH)?
Its value is 0.064.

And the “Formed TBARS” value ([2]; reaction time 0 hr)?
The value was 0.00 μg/g-linoleic acid.

And the Formed conjugated diene ([2]; reaction time 0 hr)?
Its Formed conjugated diene is 0.27 μg/g-linoleic acid.

And the “Conjugated diene formation: (%)” value ([2]; reaction time 0 hr)?
The value was “(100) %”.

What about the “Formed TBARS” value ([2]; reaction time 1 hr) of the same compound?
Its value is 1.52 μg/g-linoleic acid.

What about the Formed conjugated diene ([2]; reaction time 1 hr) of the same compound?
The Formed conjugated diene was 5.16 μg/g-linoleic acid.

What about the “Conjugated diene formation: (%)” value ([2]; reaction time 1 hr) of the same compound?
The value was “(55) %”.

What about the “TBARS formation: (%)” value ([2]; reaction time 1 hr) of the same compound?
The value was “(55) %”.

And the “Formed TBARS” value ([2]; reaction time 2 hr)?
Its value is 3.55 μg/g-linoleic acid.

What about the Formed conjugated diene ([2]; reaction time 2 hr) of the same compound?
The Formed conjugated diene was 9.15 μg/g-linoleic acid.

What about the “Conjugated diene formation: (%)” value ([2]; reaction time 2 hr) of the same compound?
The value was “(51) %”.

And the “TBARS formation: (%)” value ([2]; reaction time 2 hr)?
The value was “(35) %”.

And the “Formed TBARS” value ([2]; reaction time 6 hr)?
Its value is 7.97 μg/g-linoleic acid.

And the Formed conjugated diene ([2]; reaction time 6 hr)?
Its Formed conjugated diene is 23.83 μg/g-linoleic acid.

And the “Conjugated diene formation: (%)” value ([2]; reaction time 6 hr)?
The value was “(40) %”.

What about the “TBARS formation: (%)” value ([2]; reaction time 6 hr, listed as Cyclotetra-saccharide) of the same compound?
The value was “(30) %”.

What about the “Conjugated diene formation: (%)” value [2, 4] of the same compound?
Its value is “about 40%”.

What about the “TBARS formation: (%)” value [2, 4] of the same compound?
Its value is “about 30%”.

And the Sucrase activity (sucrase; enzyme solution incubated with AAPH at 37° C. for two hours, with or without cyclotetrasaccharide)?
Its Sucrase activity is 0.0105 u/mg-protein.

And the “Sucrase Relative residual activity (%)” value (sucrase; versus system with no AAPH, 37° C., two hours)?
The value was “(72) %”.

And the “OLAARPs Formation: (%)” value ([3]; 2,4-decadienal)?
Its value is “(67) %”.

What about the “Protein carbonyl Formation: (%)” value ([3]; 2,4-decadienal) of the same compound?
The value was “(48) %”.

And the “OLAARPs Formation: (%)” value [3, 5]?
Its value is “about 67%”.

And the “Protein carbonyl Formation: (%)” value [3, 5]?
The value was “about 48%”.

What about the “OLAARPs Formation: (%)” value ([3]; MDA) of the same compound?
Its value is “(39) %”.

And the “Protein carbonyl Formation: (%)” value ([3]; MDA)?
Its value is “(66) %”.

And the “OLAARPs Formation: (%)” value [3, 6]?
The value was “about 39%”.

And the “Protein carbonyl Formation: (%)” value [3, 6]?
Its value is “about 66%”.

What about the “Formed OLAARPs” value [3, 7] of the same compound?
Its value is 5.44 μmol/g-L-lysine.

And the “Formed Protein carbonyl” value [3, 7]?
The value was 6.42 μmol/g-L-lysine.

What about the “Formed OLAARPs” value [3, 8] of the same compound?
The value was 3.39 μmol/g-L-lysine.

And the “Formed Protein carbonyl” value [3, 8]?
The value was 3.93 μmol/g-L-lysine.

Which “OLAARPs Formation: (%)” value ([3]; 2,4-decadienal) does the source give for `OC[C@H]1O[C@H](O[C@H]2O[C@H](CO)[C@@H](O)[C@H](O)[C@H]2O)[C@H](O)[C@@H](O)[C@@H]1O` [α, α-Trehalose, α, α-trehalose, reference compound] here?
The value was “(70) %”.

And the “Protein carbonyl Formation: (%)” value ([3]; 2,4-decadienal)?
The value was “(55) %”.

What about the “OLAARPs Formation: (%)” value ([3]; MDA) of the same compound?
The value was “(38) %”.

And the “Protein carbonyl Formation: (%)” value ([3]; MDA)?
The value was “(67) %”.

And the “Formed OLAARPs” value [3, 7]?
Its value is 5.72 μmol/g-L-lysine.

And the “Formed Protein carbonyl” value [3, 7]?
The value was 7.47 μmol/g-L-lysine.

What about the “Formed OLAARPs” value [3, 8] of the same compound?
Its value is 3.24 μmol/g-L-lysine.

What about the “Formed Protein carbonyl” value [3, 8] of the same compound?
Its value is 3.99 μmol/g-L-lysine.
